Laboratory results reported in publication PMC11334105, “Contribution of Noncovalent Recognition and Reactivity to the Optimization of Covalent Inhibitors: A Case Study on KRas^G12C” (ACS Chemical Biology, 2024).
Read-outs that look alike come from different tables or passages of the source.

Assays:
[1] = target: T1, KRAS^G12C (Homo sapiens, UniProt P01116, G12C); assay: MANT-GDP nucleotide exchange assay (SOS1, GppNHp); type: biochemical
Protocol: The reaction was stopped by adding MgCl2 to a final concentration of 10 mM, then incubated at 20 °C for 30 min. The unbound MANT-GDP was removed using the NAP-5 column equilibrated with nucleotide exchange buffer (40 mM HEPES-NaOH (pH 7.5), 50 mM NaCl, 10 mM MgCl2, 2 mM Dithiothreitol DTT).

[2] = tested on: H358; assay: Cell proliferation assay (MTT), KRAS^G12C expressing cell; details: Homo sapiens, NCI-H358, 72 h, read-out: IC50 anti-proliferative activity
[3] = tested on: MiaPaca2; assay: as above; details: Homo sapiens, MIA PaCa-2, 72 h, read-out: IC50 anti-proliferative activity
[4] = tested on: H1792; assay: as above; details: Homo sapiens, NCI-H1792, 72 h, read-out: IC50 anti-proliferative activity
[5] = HPLC-based GSH reactivity and stability assay; type: physicochemical; details: for half-life at 250 μM: 5 mM glutathione, PBS pH 7.4, corrected for aqueous degradation, mean ± SD, n = 2, read-out: t1/2 GSH (converted); for experimental ΔG^#(GSH): free energy barrier calculated from t1/2 and GSH^– concentration
Protocol: The cysteine reactivity of the compounds was first assessed in a surrogate kinetic assay.[25],[26] Glutathione (GSH), a cysteine surrogate, was used in a large excess to ensure quasi-first-order reaction kinetics.
The sample was eluted with gradient elution using eluent A (0.1% FA in H2O) and eluent B (0.1% FA in ACN). The column temperature was always kept at 30 °C; the injection volume was 20 μL, the flow rate was set to 1.5 mL/min, and a Reprospher C18 (5 μm, 100 mm × 3 mm) column was used along with the following gradient. […] The AUC (area under the curve) values were determined via the integration of HPLC chromatograms and then corrected with the internal standard. The fragments’ AUC values were subjected to ordinary least-squares (OLS) linear regression, and to compute the important parameters (kinetic rate constant and half-life time), an Excel sheet was applied. The data are expressed as means of duplicate determinations. The kinetic rate constant for the degradation and corrected GSH reactivity were calculated as follows. The reaction half-life for pseudo-first-order reactions (t1/2) is ln 2/k, where k is the reaction rate. In the case of competing reactions (reaction with GSH and degradation), the apparent reaction rate is kapp = kdeg + kGSH. When half-lives are measured experimentally, t1/2(app) = ln 2/(kapp) = ln 2/(kdeg + kGSH). In our case, the corrected kdeg and kapp (regarding blank and GSH-containing samples, respectively) can be calculated by the linear regression of the measured kinetic data points. The corrected kGSH is calculated as kapp – kdeg, and finally, the half-life is determined using the equation t1/2 = ln 2/k.

[6] = target: T1, KRAS^G12C; assay: LC-MS occupancy measurements (KI and kinact determination); type: binding; details: for kobs: 5 μM KRASG12C, duplicated experiments; for experimental ΔG^# (KRAS^G12C): free energy barrier calculated from kinact; for experimental ΔGbind: obtained as RT ln(KI) with KI in M units
[7] = target: KRAS^G12C; details: published value ref 46; cited from earlier work
[8] = target: KRAS^wt (Homo sapiens, UniProt P01116); assay: MANT-GDP nucleotide exchange assay against wild type
Protocol: In the experiments, we used the GTP analogue, GppNHp, which cannot be hydrolyzed by Ras.
After the incubation, the MANT-GDP KRAS-inhibitor mixtures were loaded into a black 384-well microplate in the presence or absence of the different inhibitor molecules in various concentrations. The nucleotide exchange reaction was initiated by adding a 100-fold molar excess of GppNHp (catalog no.: G0635, Sigma-Aldrich), a nonhydrolyzable GTP analog, and the SOS1 exchange domain (catalog no.: GE02, Cytoskeleton, Inc.) protein in 0.2 μM final concentration. The change in fluorescence intensity was measured every 30 s in RT for 60 min on an EnvSpire plate reader (PerkinElmer, Inc.). The measured values were fitted to a single exponential function by using GraphPad Prism 10 software. The derived rates were normalized to the RAS-SOS1 minus RAS-only samples from which the IC50 values were calculated from three independent experiments with each inhibitor using GraphPad Prism 10 software.

[9] = KRAS^G12C, 60 min incubation with inhibitor, mean ± SD, n = 3, read-out: IC50 inhibition of nucleotide exchange
[10] = PBS buffer with 5 mM glutathione (GSH)
[11] = fit of kobs vs concentration, MS occupancy, mean ± SD, n = 2
[12] = fit of kobs vs concentration, MS occupancy, mean ± SD, n = 2, read-out: KI

| SMILES | IC50 [1, 9] [µM] | IC50 [2] [µM] | IC50 [3] [µM] | IC50 [4] [µM] | half-life at 250 μM ([5]; buffer) [h] | experimental ΔG^#(GSH) [5] [kcal/mol] | Ki [6] [µM] | kobs ([6]; 20 μM inhibitor) [s⁻¹] | kobs ([6]; 40 μM inhibitor) [s⁻¹] | kobs ([6]; 80 μM inhibitor) [s⁻¹] | kobs ([6]; 160 μM inhibitor) [s⁻¹] | experimental ΔG^# (KRAS^G12C) [6] [kcal/mol] | experimental ΔGbind [6] | IC50 [1] [µM] | kinact/KI [7] | IC50 [8] [µM] | half-life at 250 μM [5, 10] [h] | kinact/KI [6] [M⁻¹ s⁻¹] | kinact [6, 11] | Ki [6, 12] [µM] |
| --- | --- | --- | --- | --- | --- | --- | --- | --- | --- | --- | --- | --- | --- | --- | --- | --- | --- | --- | --- | --- |
| O=C(CCl)N1CCN(c2ncnc3cc(-c4c(O)cccc4F)c(Cl)cc23)CC1 [2a, 2-Chloro-1-{4-[6-chloro-7-(2-fluoro-6-hydroxyphenyl)-quinazolin-4-il]piperazine-1-yl}ethane-1-one] | 0.305 ± 0.04 | 2.7 | 3.1 | 2.9 | – | – | – | – | – | – | – | – | – | – | – | – | – | – | – | – |
| CN1CCCC1COc1nc(N2CCN(C(=O)C3CN3)CC2)c2cc(Cl)c(-c3c(O)cccc3F)cc2n1 (centres unmarked) [4b, Aziridin-2-yl(4-(6-chloro-7-(2-fluoro-6-hydroxyphenyl)-2-((1-methylpyrrolidin-2-yl)methoxy)quinazolin-4-yl)piperazin-1-yl)methanone] | – | 90 | 48.2 | 30.8 | > 72 | >20.1 | 112 ± 30.1 | 0.00029 ± 0.00018 | 0.00044 ± 0.00004 | 0.00072 ± 0.00018 | 0.00104 ± 0.00002 | 21.2 ± 0.1 | –5.4 ± 0.2 kcal/mol | 84.4 ± 18.9 | – | – | – | – | – | – |
| CN1CCCC1COc1nc(N2CCN(C(=O)CCl)CC2)c2cc(Cl)c(-c3c(O)cccc3F)cc2n1 (centres unmarked) [2b, 2-Chloro-1-(4-(6-chloro-7-(2-fluoro-6-hydroxyphenyl)-2-((1-methylpyrrolidin-2-yl)methoxy)quinazolin-4-yl)piperazin-1-yl)ethan-1-one] | 0.642 ± 0.115 | 1.8 | 3.2 | 1.8 | – | – | – | – | – | – | – | – | – | – | – | – | – | – | – | – |
| C=CC(=O)N1CCN(c2nc(OC[C@@H]3CCCN3C)nc3c(F)c(-c4nc(N)cc(C)c4C(F)(F)F)c(Cl)cc23)[C@@H](C)C1 [Divarasib] | – | – | – | – | – | – | – | – | – | – | – | – | – | – | 710,000 M^–1 s^–1 | – | – | – | – | – |
| C=CC(=O)N1CCN(c2nc(OCC3CCCN3C)nc3cc(-c4c(O)cccc4F)c(Cl)cc23)CC1 (centres unmarked) [1b, 1-(4-(6-Chloro-7-(2-fluoro-6-hydroxyphenyl)-2-((1-methylpyrrolidin-2-yl)methoxy)quinazolin-4-yl)piperazin-1-yl)prop-2-en-1-one] | 0.52 ± 0.108 | 1.1 | 0.53 | 30.1 | – | – | – | – | – | – | – | – | – | – | – | 177 | – | – | – | – |
| C=CC(=O)N1CCN(c2ncnc3c(F)c(-c4c(O)cccc4F)c(Cl)cc23)CC1 [ARS-1620, reference compound] | – | 0.31 | 0.14 | 10.2 | – | – | – | – | – | – | – | – | – | – | – | – | – | – | – | – |
| C=CC(=O)N1CCN(c2ncnc3cc(-c4c(O)cccc4F)c(Cl)cc23)CC1 [1a, 1-(4-(6-Chloro-7-(2-fluoro-6-hydroxyphenyl)quinazolin-4-yl)piperazin-1-yl)prop-2-en-1-one] | 0.827 ± 0.137 | 2.3 | 1.8 | 16.2 | – | – | – | – | – | – | – | – | – | – | – | – | – | – | – | – |
| CN1CCCC1COc1nc(N2CCN(C(=O)n3ccnc3)CC2)c2cc(Cl)c(-c3c(O)cccc3F)cc2n1 (centres unmarked) [3b, (4-(6-Chloro-7-(2-fluoro-6-hydroxyphenyl)-2-((1-methylpyrrolidin-2-yl)methoxy)quinazolin-4-yl)piperazin-1-yl)(1H-imidazol-1-yl)methanone] | 243 ± 52.4 | 9.9 | 8.8 | 17.7 | – | 19.7 ± 0.3 | – | 0.00005 ± 0.00001 | 0.0006 ± 0.00001 | 0.00009 ± 0.00001 | 0.00010 ± 0.00001 | 22.7 ± 0.0 | –6.0 ± 0.1 kcal/mol | – | – | – | 40 ± 18 | 3.1 ± 0.7 | 0.13 ± 0.01 0.001 s^–1 | 42.2 ± 9.9 |
| O=C(N1CCN(c2ncnc3cc(-c4c(O)cccc4F)c(Cl)cc23)CC1)n1ccnc1 [3a, (4-(6-Chloro-7-(2-fluoro-6-hydroxyphenyl)quinazolin-4-yl)piperazin-1-yl)(1H-imidazol-1-yl)methanone] | 67.4 ± 11.3 | 27.4 | 20.4 | 17.9 | – | 19.6 ± 0.2 | – | 0.00014 ± 0.00003 | 0.00021 ± 0.00005 | 0.00033 ± 0.00004 | 0.00033 ± 0.00006 | 22.0 ± 0.2 | –6.0 ± 0.4 kcal/mol | – | – | – | 35 ± 11 | 9.8 ± 4.7 | 0.4 ± 0.1 0.001 s^–1 | 40.9 ± 16.7 |
| O=C(C1CN1)N1CCN(c2ncnc3cc(-c4c(O)cccc4F)c(Cl)cc23)CC1 (centres unmarked) [4a, Aziridin-2-yl(4-(6-chloro-7-(2-fluoro-6-hydroxyphenyl)quinazolin-4-yl)piperazin-1-yl)methanone] | – | 27.1 | 19.8 | 22.6 | > 72 | >20.1 | 22.2 ± 1.8 | 0.00004 ± 0.00001 | 0.0006 ± 0.00001 | 0.00007 ± 0.00001 | 0.00008 ± 0.00001 | 22.9 ± 0.0 | –6.3 ± 0.1 kcal/mol | 198 ± 39 | – | – | – | – | – | – |
